Reference: patent US20230331663A1, “SMALL MOLECULE NICOTINAMIDE ADENINE DINUCLEOTIDE MODULATORS” (THE CLEVELAND CLINIC FOUNDATION, priority 2020, published 2023)
“Also recorded” adds a separate entry of the source.

Experiments:
[1] = tested on: Human bone marrow cells from healthy volunteers; assay: Human HSPC self renewal, methyl cellulose colony re-plating; type: cell-based; details: colonies counted after eight days and re-plated until control HSPCs exhausted
Description: The human bone marrow cells from healthy volunteers were grown in methyl cellulose in the presence and absence of the compound 1-17 and colony number were counted after eight days in culture and re-plated till control HSPCs were completely exhausted. A. The number of colony and B. the total cellular output.
Human bone marrow cells from healthy volunteers were grown in methyl cellulose in the presence and absence of the compound 1-17 and colony number were counted after eight days in culture and re-plated till control HSPCs were completely exhausted.

[2] = tested on: Total Human bone marrow, isolated CD34+ HSPCs, LTC-IC; assay: Stem cell function, total cellular output in culture; type: cell-based
Description: Total Human bone marrow A, isolated CD34+ HSPCs B, and long-term culture initiating hematopoietic cells (LTC-IC) C, were grown in the presence and absence of the compound 1-17 and the total cellular output was determined. Compound 1-17 is synergistic with NAD treatment.
Total Human bone marrow, isolated CD34+ HSPCs, and long-term culture initiating hematopoietic cells (LTC-lC), were grown in the presence and absence of compound 1-17 and the total cellular output was determined.

[3] = target: T1, recombinant human CD38 full length protein (Homo sapiens, UniProt P28907); assay: β-NAD+ degradation assay (HPLC, C18); type: biochemical; details: purified full length wild type recombinant CD38 incubated with NAD+
T1 construct: The recombinant human CD38 full length protein UniProtKB - P28907 (CD38_HUMAN); His-tag (inferred from the pET28a vector and IMAC purification); made in house
T1 sequence (P28907 1-300): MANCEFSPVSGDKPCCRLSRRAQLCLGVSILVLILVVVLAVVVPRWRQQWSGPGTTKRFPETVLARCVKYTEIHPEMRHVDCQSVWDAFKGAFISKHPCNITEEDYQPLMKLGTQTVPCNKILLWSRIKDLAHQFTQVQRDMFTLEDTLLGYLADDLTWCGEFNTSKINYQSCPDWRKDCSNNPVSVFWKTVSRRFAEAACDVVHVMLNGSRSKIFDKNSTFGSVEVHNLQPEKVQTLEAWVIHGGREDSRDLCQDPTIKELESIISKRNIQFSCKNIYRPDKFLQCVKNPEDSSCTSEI
Description: FIGS. 3A-3D provides graphs showing Compound 1-17 inhibits CD38 and protects NAD degradation in vitro. Full length wild type recombinant CD38 was expressed and purified and incubated with NAD and high-performance liquid chromatographic assay using C18 were used to quantify NAD degradation. A. chromatogram with vehicle, B. CD38 incubation for 4 hours at room temperature C.
The recombinant human CD38 full length protein UniProtKB - P28907 (CD38_HUMAN) was cloned into pET28a and purified using IMAC column followed by gel filtration on SephacrylS200. The purified protein (10 µg/ml) was incubated with varying amount of NAD+ in assay buffer ([…], 5 mM MgCl2 at pH 7.0) at 25° C. for 3 hours, reaction was stopped by heat inactivation followed by acetone precipitation of protein the supernatant was vacuum dried and dissolved in water and loaded onto reverse phase C18 column and eluted with a gradient of 0-25% of acetonitrile in water.
Full length wild type recombinant CD38 was expressed and purified and incubated with NAD+ and high-performance liquid chromatographic assay using C18 were used to quantify NAD+ degradation.

[4] = tested on: healthy murine bone marrow; assay: Treatment of healthy mice, hematopoiesis; type: in vivo; details: 40 mg/kg
Description: The effects of CD38 inhibitor 1-17 and its analogues on hematopoiesis of healthy murine bone marrow were tested. […] Experiments were conducted to determine whether treatment with compound 1-17 has impact on blood counts and NAD+ levels in cells. The inventors treated 9 mice which were sacrificed at 2, 5 and 12 week and blood counts, marrow morphology and cellularity and bone marrow colony formation per 10^6 cell were determined in colony forming assays.

[5] = tested on: murine bone marrow cells from C57bl6 mice; assay: Mouse HSPC self renewal, methyl cellulose colony re-plating; type: cell-based
Description: FIGS. 5A and 5B provide graphs showing Treatment of 1-17 to murine bone marrow expands the colony forming hematopoietic stem cells. The murine bone marrow cells from C57BL6 mice were grown in methyl cellulose in the presence and absence of the compound 1-17 and colony number were counted every week and re-plated. A. The number of colony and B. the total cellular output.
The murine bone marrow cells from C57bl6 mice were grown in methyl cellulose in the presence and absence of compound 1-17. Colony numbers were counted every week and re-plated.
FIG. 5 provides graphs showing that treatment with compound 1-17 increases mouse HSPC self-renewal. […] Additionally, as shown in FIG. 5B directed to total cellular output, cells also proliferate far longer than the vehicle control, maintaining population for an average of 1 to 2 passes after control.

[6] = tested on: undifferentiated normal human fibroblast (NHFB); assay: Cell proliferation assay, fibroblast life span; type: cell-based
Description: FIGS. 4A and 4B provide graphs showing NAD protection by compound 1-17 extend life span of undifferentiated normal human fibroblast (NHFB) under in-vitro cell culture conditions. NHFB were either A. young (<8 doubling time) or B. old (>10 doublings) cell cultures were treated with indicated amount of 1-17 in complete growth media.
NHFB were either young (<8 doubling time) (FIG. 4A) or old (>10 doublings) (FIG. 4B). Cell cultures were treated with the indicated amount of 1-17 in complete growth media.

Row | Structure (SMILES) | colony forming hematopoietic stem and progenitor cells (HSPCs) [1] | combination with NAD treatment ([2]; cell culture, total cellular output) | long term hematopoietic stem cells, total cellular output ([2]; total human bone marrow, CD34+ HSPCs, LTC-IC in culture) | inhibition of CD38 NAD+ degradation [3] | efficacy and tolerability of treatment dose [4] | self-renewal of HSPCs in colony numbers and overall cell counts ([5]; mouse bone marrow in methyl cellulose, counted every week and re-plated) | passes for which population is maintained after control ([5]; total cellular output, versus vehicle control) | doubling time ([6]; NHFB treated with indicated amount of compound) | life span of NHFB in culture ([6]; young (<8 doubling time) or old (>10 doublings) NHFB, complete growth media)
1 | O=C(Nc1cccc2cc(C(F)(F)F)ccc12)c1cc(CCCF)ccc1O [Compound 1-11] | expands the colony forming hematopoietic stem and progenitor cells (HSPCs) | – | – | – | – | – | – | – | –
2 | Cl.NCCc1ccc(O)c(C(=O)Nc2cccc3ccccc23)c1 [Compound 1-17, 5-(2-Aminoethyl)-2-hydroxy-N-(naphthalen-1-yl)benzamide] | expands the colony forming hematopoietic stem and progenitor cells (HSPCs) | synergies with NAD treatment | expands long term hematopoietic stem cells in cell culture | inhibits CD38 and protects NAD+ degradation in vitro; also recorded: Dose dependent inhibition of CD38 | effective and well tolerated | markedly increased | 1 to 2 passes | significantly increased in a dose dependent fashion | extends the life span
